Source: patent US12551469B2 (priority 2020, dated 2026)

Experiments:
[1] = tested on: ARDS induced thrombosis; experiment: Rat venous stasis (Wessler) model after LPS-induced lung injury (ARDS); format: in vivo, Sprague-Dawley rats
Text: This study assessed the efficacy of ABC294640 to reduce the incidence of adverse thromboembolic events in situ in acute respiratory distress syndrome (ARDS) conditions using a rat venous stasis model. This assay is designed to measure thrombotic risks following LPS-induced lung injury. LPS-induced lung injury is one of the most commonly used rodent models for ARDS and was described to mimic the neutrophilic inflammatory response observed in ARDS patients. The mechanism of LPS-induced ARDS is based on damage to endothelial cells and a systemic inflammatory response.
The venous stasis (Wessler) test in animals has been used extensively for over 40 years as a laboratory measure for in vivo hypercoagulability.
Test compound was administered by oral gavage 3 hours post-instillation and 24, 48 and 72 hours post-instillation, at a dose of 250 mg/kg. The appropriate amount of LPS from E. coli (O55:B5) was diluted in saline to obtain a final concentration of 400 μg/mL. This solution was given by intratracheal instillation (0.5 mL/kg). The vehicle was composed of PBS pH 7.4±0.1. ABC294640 was weighed and transferred in vehicle (PBS, 0.375%, pH 7.4) to obtain a final solution at 25 mg/mL. ABC294640 solution is stirred for 10 minutes at room temperature prior to dosing. This solution was given by oral gavage (250 mg/kg, 10 mL/kg).
Sprague-Dawley rats (male) weighing between 275 and 400 g were used for this study. Animals were randomly assigned to a treatment group by the Study Director. Food and water were given ad libitum. Observation for behavior and general health status were done until the sacrifice. The body weight was recorded before the instillation and 24, 48 and 72 hours post-instillation.
In this study, ARDS was induced by intratracheal instillation of LPS. Throughout the ARDS induction and development process, animal was dosed by oral gavage with vehicle or ABC294640 (3 h, 24 h, 48 and 72 hours post-instillation). […] The stasis was maintained for 30 minutes. The segment was then excised and its content scored. Subsequently, animal was euthanized by exsanguination.
• 1. Prior LPS or saline instillation, the functional respiratory parameters of all rat was assessed by whole-body plethysmography and SpO2 was evaluated on conscious rat with a collar probe pulse oximeter. Rat was first acclimatized to the plethysmograph chamber prior to the physiological assessment. The respiratory rate, the Penh and the inspiratory/expiratory time measurements was analyzed. • 2. […]
• 5. Rats were evaluated periodically to ensure animal well-being (general behavior and daily body weight). • 6. […] SpO2 and whole-body plethysmography were also evaluated 24, 48 and 72 hours post-instillation. • 8. […] The thrombi was measured, weighed and scored on a scale from 0 to 4 (see Table 2).

[2] = tested on: COVID-19 pneumonia; experiment: Randomized, double-blind, placebo-controlled Phase 2a study of opaganib in COVID-19 pneumonia; format: in vivo, human
Text: This was a phase 2a, proof of concept, multi-center randomized double-blind, parallel arm, placebo-controlled study. After informed consent was obtained, patients entered a screening phase for no more than 3 days, to determine eligibility. […] Treatment assignments remained blinded to the patient, investigator and hospital staff, as well as the sponsor. As there was no consensus for a definitive treatment specifically targeting the SARS-CoV-2 virus causing COVID-19 (Wilson, 2020), standard of care referred to regional, institutional or physician directed therapies, that were implemented during the COVID-19 pandemic.
Study drug was to be administered every day for 14 days (Day 1 to Day 14), unless the patient had been discharged from the hospital without requiring supplemental oxygen, in which case study drug would only be administered to Day 10.
Two patients were randomized in each group but not treated. […] Two patients in the opaganib arm experienced adverse events such that study drug was terminated, while one placebo patient was terminated due to an adverse event.
The primary efficacy endpoint calculated for each patient the area under the curve of the supplemental oxygen requirement through day 14, using the trapezoidal rule after subtracting the baseline oxygen requirement at each day. Days where no supplementary oxygen was needed, were recorded as 0. If several values of oxygen requirement (L/min) are recorded in a certain day, for the primary analysis the highest of these values were taken. In the primary analysis, for patients who die before Day 14, or require intubation and mechanical ventilation, missing daily values were assigned the maximal supplemental oxygen flow requirement of 8 L/min. […]
Supplemental oxygen requirement up to Day 14 was collected even if a patient discontinued treatment prior to Day 14 but continued in the study to Day 14. […] A sensitivity analysis to the above missing data handling approach was performed using an AUC summary statistics approach, in which groups AUC is calculated from the estimated parameters of a Repeated-Measures model. […]

[3] = tested on: SARS-CoV-2 clinical isolate (2019-nCoV/USA-WA1/2020); experiment: Anti-viral activity against SARS-CoV-2 in HBEC (EpiAirway) ALI cultures, apical viral titer by TCID50 assay; format: cell-based
[4] = tested on: human bronchial epithelial cells (HBEC); settings: male
[5] = tested on: COVID-19 infection; experiment: Pilot / compassionate use study of opaganib in hospitalized patients with COVID-19 pneumonia; format: in vivo, human
Experimental: Patients entered a screening period of up to 1 week. Eligible patients entered the treatment period for up to 2 weeks. All participants were followed for 2 weeks after their last dose of study drug, at the end of the 2 week treatment period, or once they had 2 consecutive daily negative viral swabs for the COVID-19 virus or at after premature drug discontinuation prior to Day 14. The maximum duration of study participation was 35 days […].
Each dose is administered with food or 15-30 minutes after tube-feeding, where appropriate. […] These patients had moderate to severe COVID-19-related pneumonia with hypoxia on supplemental oxygen.
Five patients were included in the analysis, and for comparison purposes, we used a control group with same-sex, same-severity patients (baseline characteristics). Univariate comparisons between the groups were performed with chi-square test for categorical variables and t-test or MannWhitney U-test for continuous variables, as appropriate. Time variables were compared with Cox proportional hazard regression, adjusted for age and background illnesses. CRP and lymphocyte changes were compared utilizing a repeated measures general linear model with a Bonferroni correction for multiple comparison.

With `O=C(NCc1ccncc1)C12CC3CC(C1)CC(c1ccc(Cl)cc1)(C3)C2` [ABC294640, 3-(4-chlorophenyl)-adamantane-1-carboxylic acid (pyridin-4-ylmethyl)amide] the blood clot length ([1]; 250 mg/kg oral gavage) was “reduction”, the blood clot weight ([1]; 250 mg/kg oral gavage) was “reduction” and the thrombosis ([1]; 250 mg/kg oral gavage 3, 24, 48, 72 h post LPS instillation, 30 min stasis) was “reduction of thrombosis”. For the same compound, the total thrombus score ([1]; 250 mg/kg oral gavage, score 0 to 4) was “reduction”.

With `Cl.O=C(NCc1ccncc1)C12CC3CC(C1)CC(c1ccc(Cl)cc1)(C3)C2` [opaganib, 3-(4-chlorophenyl)-adamantane-1-carboxylic acid (pyridin-4-ylmethyl) amide, hydrochloride salt] the “patients with adverse events such that study drug was terminated” value ([2]; opaganib arm, one placebo patient) was “Two”, the “patients with serious adverse events (SAEs) vs. placebo arm” value ([2]; top-line results) was “fewer patients suffered from serious adverse events (SAEs)” and the “safety vs. placebo arm” value ([2]; top-line results) was “safe, with no material safety differences”. For the same compound, the “50% inhibition reached in concentration range tested” value ([3]; 0.05 to 11.25 μg/ml) was “neither 50% inhibition nor 50% cytotoxicity were reached”, the “concentration at which complete inhibition of infectious virus production starts” value ([3]; 3 days incubation) was 1 µg/mL and the infectious virus production ([3]; opaganib 0.05 to 11.25 μg/ml, 3 days incubation) was “dose-dependent reduction in infectious virus production”. For the same compound, the “50% cytotoxicity reached in concentration range tested” value [4] was “neither 50% inhibition nor 50% cytotoxicity were reached”, the “Clinical Assessment” value ([5]; Patient 1 (14 d), started as severe on maximal OptiFlow 3 Apr. 2020, one negative viral swab as of 22 April) was 3 Apr. 2020; RA by 16 April and the “Clinical Assessment” value ([5]; Patient 2 (14 d), started as severe+, planning for intubation 7 Apr. 2020, RA by 20 Apr. 2020, D/C on 22 Apr. 2020) was 7 Apr. 2020; RA by 20. The “Clinical Assessment” value ([5]; Patient 3 (7 d), moderate-severe, on OptiFlow 13 Apr. 2020, RA by 17 Apr. 2020, D/C on 19 Apr. 2020) was 13 Apr. 2020; RA by, the “Clinical Assessment” value ([5]; Patient 4 (11 d), started severe+ 70% OptiFlow on 13 Apr. 2020) was “RA on 22 Apr. 2020” and the “Clinical Assessment” value ([5]; Patient 5 (2 d), started moderate on 13 Apr. 2020, nasal cannula, after one day on opaganib, D/C on 14 Apr. 2020 on RA) was “Dramatic improvement”. The “C-Reactive Protein (CRP) change” value ([5]; all six patients) was “reduction in C-Reactive Protein (CRP)”, the “clinical improvement, including reduced supplemental oxygenation and higher lymphocyte counts” value ([5]; all six patients) was “measurable clinical improvement” and the “cases requiring mechanical ventilation” value ([5]; compared with 33% of controls) was “none of the cases required mechanical ventilation”. For the same compound, the “lymphocyte count increase vs. matched controls” value ([5]; five patients vs same-sex, same-severity control group) was “significantly faster increase in lymphocyte count”, the “patients back to breathing room air” value ([5]; of 6 treated patients) was 5 patients and the “patients discharged from hospital” value ([5]; of 6 treated patients) was 3 patients. For the same compound, the “moderate to-severe patients improved significantly” value ([5]; of seven compassionate use patients, patient #7 had only 1 day of treatment) was 6 patients.
